Assay results taken from US8377974B2 (Millennium Pharmaceuticals, Inc., priority 2004, dated 2013).

Molecular target: T1, human plasma protein factor Xa (Homo sapiens, UniProt P00742)
T1 construct: measure proteolytic activity of the enzyme (factor Xa); purchased Haematologic Technologies (Essex Junction, Vt.); host or cells: human plasma
Experiment: Factor Xa IC50 determination: cleavage of paranitroanilide substrate S-2765 in 96-well plates
Type: biochemical
Settings: fXa 1 nM, S-2765 100 μM, Tris buffered saline pH 7.4, room temperature
Excerpt: This example illustrates methods for evaluating the compounds of the invention, along with results obtained for such assays. The in vitro and in vivo Factor Xa isoform activities of the inventive compounds can be determined by various procedures known in the art, such as a test for their ability to inhibit the activity of the Factor Xa isoform. […] The IC50 value is the concentration (in nM) of the compound required to provide 50% inhibition of Factor Xa isoform.
An in vitro assay for detecting and measuring inhibition activity against Factor Xa is as follows:
The substrate S-2765 (Z-D-Arg-Gly-Arg-pNA.HCl) was obtained from Diapharma (West Chester, Ohio).
The human plasma protein factor Xa was purchased from Haematologic Technologies (Essex Junction, Vt.).
All assays, which are performed in 96-well microtiter plates, measure proteolytic activity of the enzyme (factor Xa) by following cleavage of paranitroanilide substrate. The assay buffer used for proteolytic assays was Tris buffered saline (20 mM Tris, 150 mM NaCl, 5 mM CaCl2, 0.1% Bovine serum albumin (BSA), 5% Dimethly Sulfoxide (DMSO) pH 7.4). In a 96-well microtiter plate, inhibitor was serially diluted to give a range of concentrations from 0.01 nM to 10 μM (final). Duplicate sets of wells were assayed and control wells without inhibitor were included. Enzyme was added to each well, (fXa concentration=1 nM), the plate was shaken for 5 seconds and then incubated for 5 minutes at room temperature. S2765 was added (100 μM final) and the plate was shaken for 5 seconds (final liquid volume in each well was 200 μl). The degree of substrate hydrolysis was measured at 405 nm on a Thermomax plate reader (Molecular Devices, Sunnyvale, Calif.) for 2 minutes. The initial velocities (mOD/min), for each range of inhibitor concentrations, were fitted to a four parameter equation using Softmax data analysis software. The parameter C, derived from the resulting curve-fit, corresponded to the concentration for half maximal inhibition (IC50).

T1 sequence (P00742 235-488 limits assumed): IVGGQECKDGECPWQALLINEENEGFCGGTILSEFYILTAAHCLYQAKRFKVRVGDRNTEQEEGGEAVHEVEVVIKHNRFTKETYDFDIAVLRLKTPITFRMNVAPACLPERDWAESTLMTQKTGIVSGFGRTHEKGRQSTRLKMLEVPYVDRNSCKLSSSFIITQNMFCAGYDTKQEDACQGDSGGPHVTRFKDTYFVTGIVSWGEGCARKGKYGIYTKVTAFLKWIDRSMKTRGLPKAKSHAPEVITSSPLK
T1 sequence (P00742 41-179 partner limits assumed): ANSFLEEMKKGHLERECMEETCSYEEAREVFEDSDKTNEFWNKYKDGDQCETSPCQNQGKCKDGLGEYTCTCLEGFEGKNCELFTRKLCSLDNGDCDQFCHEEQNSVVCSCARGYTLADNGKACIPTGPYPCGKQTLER

SMILES	IC50
N=C(N)N1CCC(C2=NOC(CNC(=O)c3ccc(Cl)s3)C2)CC1 (stereo not drawn) [Example 172, 5-Chloro-thiophene-2-carboxylic acid [3-(1-carbamimidoyl-piperidin-4-yl)-4,5-dihydro-isoxazol-5-ylmethyl]-amide]	≥ 500 nM
O=C(NCC1CC(c2ccc(-n3cc(F)ccc3=O)cc2)=NO1)c1ccc(Cl)s1 (stereo not drawn) [Example 280, 5-Chloro-N-((3-(4-(5-fluoro-2-oxopyridin-1(2H)-yl)phenyl)-4,5-dihydroisoxazol-5-yl)methyl)thiophene-2-carboxamide]	≤ 100 nM
O=C(NCc1cn(-c2ccc(-n3ccccc3=O)cc2)nn1)c1ccc(Cl)s1 [Example 290, 5-Chloro-N-((1-(4-(2-oxopyridin-1(2H)-yl)phenyl)-1H-1,2,3-triazol-4-yl)methyl)thiophene-2-carboxamide]	≤ 100 nM
CSc1ccccc1-c1ccc(C2=NOC(CNC(=O)c3ccc(Cl)s3)C2)cc1 (stereo not drawn) [Example 185, 5-Chloro-thiophene-2-carboxylic acid [3-(2′-methylsulfanyl-biphenyl-4-yl)-4,5-dihydro-isoxazol-5-ylmethyl]-amide]	≥ 500 nM
CC1(CNC(=O)c2ccc(Cl)s2)CC(c2ccc(C(=N)N3CCC(C(N)=O)CC3)cc2)=NO1 (stereo not drawn) [Example 68, 1-{[4-(5-{[(5-Chloro-thiophene-2-carbonyl)-amino]-methyl}-5-methyl-4,5-dihydro-isoxazol-3-yl)-phenyl]-imino-methyl}-piperidine-4-carboxylic acid amide]	100 to 500 nM
COCCN(C)C(=N)c1ccc(-c2nc(CNC(=O)c3ccc(Cl)s3)co2)cc1 [Example 346, N-((2-(4-(N-(2-Methoxyethyl)-N-methylcarbamimidoyl)phenyl)oxazol-4-yl)methyl)-5-chlorothiophene-2-carboxamide]	100 to 500 nM
CCN(C)C(=N)c1ccc(-c2cc(CN(C)C(=O)c3ccc(Cl)s3)on2)cc1 [Example 42, 5-Chloro-thiophene-2-carboxylic acid {3-[4-(N-ethyl-N-methyl-carbamimidoyl)-phenyl]-isoxazol-5-ylmethyl}-methyl-amide]	≥ 500 nM
O=C(NCC1CC(c2ccc(Nc3c(Cl)cncc3Cl)cc2)=NO1)c1ccc(Cl)s1 (stereo not drawn) [Example 402, 5-Chloro-N-((3-(4-(3,5-dichloropyridin-4-ylamino)phenyl)-4,5-dihydroisoxazol-5-yl)methyl)thiophene-2-carboxamide]	≥ 500 nM
CC1(CNC(=O)c2ccc(Cl)s2)CC(c2ccc(Cl)cc2)=NO1 (stereo not drawn) [Example 154, 5-Chloro-thiophene-2-carboxylic acid [3-(4-chloro-phenyl)-5-methyl-4,5-dihydro-isoxazol-5-ylmethyl]-amide]	≥ 500 nM
O=C(NCc1cc(-c2ccc(I)cc2)no1)c1ccc(Cl)s1 [Example 288, 5-Chloro-N-((3-(4-iodophenyl)isoxazol-5-yl)methyl)thiophene-2-carboxamide]	≥ 500 nM
CN1CCN=C1c1ccc(-c2cncc(CNC(=O)c3ccc(Cl)s3)c2)cc1 [Example 370, 5-Chloro-N-((5-(4-(1-methyl-4,5-dihydro-1H-imidazol-2-yl)phenyl)pyridin-3-yl)methyl)thiophene-2-carboxamide]	≤ 100 nM
COc1cc(C2=NCCN2C)ccc1-c1cc(CNC(=O)c2ccc(Cl)s2)on1 [Example 119, 5-Chloro-thiophene-2-carboxylic acid {3-[2-methoxy-4-(1-methyl-4,5-dihydro-1H-imidazol-2-yl)-phenyl]-isoxazol-5-ylmethyl}-amide]	≤ 100 nM
C[C@H](NC(=O)c1ccc(Cl)s1)c1cc(-c2ccc(C(=N)N3CCCCC3)cc2)no1 [Example 56, (S)-5-Chloro-thiophene-2-carboxylic acid (1-{3-[4-(imino-piperidin-1-yl-methyl)-phenyl]-isoxazol-5-yl}-ethyl)-amide]	≤ 100 nM
N=C(c1ccc(-c2cccc(CNC(=O)c3ccc(Cl)s3)c2)cc1)N1CCCC1 [Example 382, 5-Chloro-N-((3-(4-(imino(pyrrolidin-1-yl)methyl)phenyl)phenyl)methyl)thiophene-2-carboxamide]	≤ 100 nM
CN1CCN=C1c1ccc(C2=NOC(CNC(=O)c3ccc(Cl)s3)C2)c(N2CCOCC2)c1 (stereo not drawn) [Example 83, 5-Chloro-thiophene-2-carboxylic acid {3-[4-(1-methyl-4,5-dihydro-1H-imidazol-2-yl)-2-morpholin-4-yl-phenyl]-4,5-dihydro-isoxazol-5-ylmethyl}-amide]	100 to 500 nM
O=C(O)c1ccc(C2=NOC(CNC(=O)c3ccc(Cl)s3)C2)cc1 (stereo not drawn) [Example 158, 4-(5-{[(5-Chloro-thiophene-2-carbonyl)-amino]-methyl}-4,5-dihydro-isoxazol-3-yl)-benzoic acid]	≥ 500 nM
COc1ccc(-c2ccc(-c3cc(CNC(=O)c4ccc(Cl)s4)on3)cc2)c(CN(C)C)c1 [Example 217, 5-Chloro-thiophene-2-carboxylic acid [3-(2′-dimethylaminomethyl-4′-methoxy-biphenyl-4-yl)-isoxazol-5-ylmethyl]-amide]	≤ 100 nM
Cc1ccc(C2=NOC(C)(CNC(=O)c3ccc(Cl)s3)C2)cc1 (stereo not drawn) [Example 148, 5-Chloro-thiophene-2-carboxylic acid (5-methyl-3-p-tolyl-4,5-dihydro-isoxazol-5-ylmethyl)-amide]	≥ 500 nM
CCOC(=O)C1CCN(C(=N)c2ccc(-c3cc(CN(C)C(=O)c4ccc(Cl)s4)on3)cc2)CC1 [Example 39, 1-{[4-(5-{[(5-Chloro-thiophene-2-carbonyl)-methyl-amino]-methyl}-isoxazol-3-yl)-phenyl]-imino-methyl}-piperidine-4-carboxylic acid ethyl ester]	≥ 500 nM
CN(C)C(=N)c1ccc(-c2cc(CNC(=O)c3ccc(Cl)s3)no2)cc1 [Example 330, N-((5-(4-(N,N-Dimethylcarbamimidoyl)phenyl)isoxazol-3-yl)methyl)-5-chlorothiophene-2-carboxamide]	≤ 100 nM
CN(C)C(=N)c1ccc(-c2nc(CNC(=O)c3ccc(Cl)s3)co2)cc1 [Example 338, N-((2-(4-(N,N-Dimethylcarbamimidoyl)phenyl)oxazol-4-yl)methyl)-5-chlorothiophene-2-carboxamide]	≤ 100 nM
O=C(NCc1cn(-c2ccc(N3CCOCC3)nc2)nn1)c1ccc(Cl)s1 [Example 386, 5-Chloro-N-((1-(6-morpholinopyridin-3-yl)-1H-1,2,3-triazol-4-yl)methyl)thiophene-2-carboxamide]	100 to 500 nM
CN(C)Cc1ccccc1-c1ccc(-c2cc(CNC(=O)c3ccc(Cl)s3)on2)cc1 [Example 209, 5-Chloro-thiophene-2-carboxylic acid [3-(2′-dimethylaminomethyl-biphenyl-4-yl)-isoxazol-5-ylmethyl]-amide]	≤ 100 nM
N=C(c1ccc(-c2noc(CNC(=O)c3ccc(Cl)s3)n2)cc1)N1CCCCC1 [Example 337, 5-Chloro-N-((3-(4-(imino(piperidin-1-yl)methyl)phenyl)-1,2,4-oxadiazol-5-yl)methyl)thiophene-2-carboxamide]	≤ 100 nM
CN(Cc1ccco1)C(=N)c1ccc(C2=NOC(CNC(=O)c3ccc(Cl)s3)C2)cc1 (stereo not drawn) [Example 15, 5-Chloro-thiophene-2-carboxylic acid {3-[4-(N-furan-2-ylmethyl-N-methyl-carbamimidoyl)-phenyl]-4,5-dihydro-isoxazol-5-ylmethyl}-amide]	100 to 500 nM
CCN(C)C(=N)c1ccc(-c2nc(CNC(=O)c3ccc(Cl)s3)co2)cc1 [Example 343, N-((2-(4-(N-Ethyl-N-methylcarbamimidoyl)phenyl)oxazol-4-yl)methyl)-5-chlorothiophene-2-carboxamide]	100 to 500 nM
CN1CCCN(c2ccc(C3=NOC(CNC(=O)c4ccc(Cl)s4)C3)c(F)c2)CC1 (stereo not drawn) [Example 248, 5-Chloro-thiophene-2-carboxylic acid {3-[2-fluoro-4-(4-methyl-[1,4]diazepan-1-yl)-phenyl]-4,5-dihydro-isoxazol-5-ylmethyl}-amide]	≤ 100 nM
CN1CCN=C1c1ccc(-c2cc(CNC(=O)c3ccc(Cl)s3)on2)c(F)c1 [Example 70, 5-Chloro-thiophene-2-carboxylic acid {3-[2-fluoro-4-(1-methyl-4,5-dihydro-1H-imidazol-2-yl)-phenyl]-isoxazol-5-ylmethyl}-amide]	≤ 100 nM
CC(C)Oc1cc(C2=NCCN2C)ccc1C1=NOC(CNC(=O)c2ccc(Cl)s2)C1 (stereo not drawn) [Example 110, 5-Chloro-thiophene-2-carboxylic acid {3-[2-isopropoxy-4-(1-methyl-4,5-dihydro-1H-imidazol-2-yl)-phenyl]-4,5-dihydro-isoxazol-5-ylmethyl}-amide]	≤ 100 nM
O=C(NCc1cc(-c2cccc(-c3ccccc3CN3CCCC3)c2)no1)c1ccc(Cl)s1 [Example 269, 5-Chloro-thiophene-2-carboxylic acid [3-(2′-pyrrolidin-1-ylmethyl-biphenyl-3-yl)-isoxazol-5-ylmethyl]-amide]	≤ 100 nM
